This assay deals with Human DAAO Enzyme (Homo sapiens (Human), UniProt P14920). Briefly: In vitro DAAO enzyme assay (Amplex Red detection of H2O2 from D-Serine). Conditions: inhibition of DAAO activity in the presence of 10 mM D-Serine; 60 minutes at 25° C. The assay is classed as biochemical. The procedure: The functional activity of compounds inhibiting the DAAO enzyme was determined by utilizing the co-product of the catalysis of D-Serine, H2O2 which can be quantitatively measured using the Amplex Red (Invitrogen) detection. Amplex® Red reagent is a colorless substrate that reacts with hydrogen peroxide (H2O2) with a 1:1 stoichiometry in the presence of […] to produce highly fluorescent resorufin (excitationemission maxima=570/585 nm). The changes in fluorescence were monitored by a fluorescence plate reader, Envision (Perkin Elmer) and increases in DAAO activity were readily detected upon addition of D-Serine and suppression of this response observed with the application of test compounds.
Sequence of Human DAAO Enzyme (P14920 whole entry): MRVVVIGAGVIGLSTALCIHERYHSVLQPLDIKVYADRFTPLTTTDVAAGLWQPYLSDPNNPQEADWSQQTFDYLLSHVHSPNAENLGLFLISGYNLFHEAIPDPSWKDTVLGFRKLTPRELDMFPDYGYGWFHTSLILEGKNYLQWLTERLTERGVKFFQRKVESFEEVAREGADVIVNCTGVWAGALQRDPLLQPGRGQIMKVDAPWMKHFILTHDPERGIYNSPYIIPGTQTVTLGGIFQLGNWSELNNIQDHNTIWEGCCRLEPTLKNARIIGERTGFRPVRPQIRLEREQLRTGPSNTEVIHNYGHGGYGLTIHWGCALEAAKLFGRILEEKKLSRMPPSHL
The Km of D-Serine was measured for each enzyme batch to maintain consistency; this Km was used in subsequent assays.
On the day of the assay compounds were serially diluted in DMSO before being diluted 1:20 with assay buffer (20 mM Tris ph 7.4). A 5 μl portion of assay buffer was added to the wells of a 384 clear base black walled plate (Corning), 5 μl of diluted compound was then added via automated plate to plate transfer using the Bravo liquid handler (Agilent technologies) followed by 5 μl of human DAAO enzyme and then 5 μl D-Serine 50 mM was added to all but the negative control wells (final concentration of 10 mM). Finally 5 μl Amplex red reagent (Invitrogen) was added to all wells as per manufacturer's protocol. The plate was incubated for 60 minutes in the dark at 25° C. and the fluorescence in each well was measured in the Envision plate reader.
The IC50 values for compounds were determined from ten point half log scale dose-response studies and represent the concentration of compound required to […] 50% inhibition of DAAO activity in the presence of 10 mM D-Serine. Concentration response curves were generated using the average of duplicate wells for each data point and analyzed using nonlinear regression and four parameter curve fit.
As to `O=c1[nH]c(SCc2cccc(Cl)c2)ncc1O` [Example 1, 2-(3-Chlorobenzylthio)-5-hydroxypyrimidin-4(3H)-one], the half-inhibitory concentration (IC50) was determined as 120 nM.
With `O=c1[nH]c(SCc2ccccc2)ncc1O` [Example 2, 2-(Benzylsulfanyl)-5-hydroxypyrimidin-4(3H)-one] the figure was 230 nM.
Take `O=c1[nH]c(SCc2ccc(Cl)cc2)ncc1O` [Example 4, 2-[(4-Chlorobenzyl)sulfanyl]-5-hydroxypyrimidin-4(3H)-one]: the IC50 worked out at 220 nM.
For `O=c1[nH]c(SCc2ccc3ccccc3c2)ncc1O` [Example 5, 5-Hydroxy-2-[(naphthalen-2-ylmethyl)sulfanyl]pyrimidin-4(3H)-one], the half-maximal inhibitory concentration (IC50) worked out at 120 nM.
In the case of `O=c1[nH]c(SCc2cccc(F)c2)ncc1O` [Example 6, 2-[(3-Fluorobenzyl)sulfanyl]-5-hydroxypyrimidin-4(3H)-one] it was 170 nM; in that of `COc1cccc(CSc2ncc(O)c(=O)[nH]2)c1` [Example 9, 5-Hydroxy-2-[(3-methoxybenzyl)sulfanyl]pyrimidin-4(3H)-one], 160 nM; in that of `O=c1[nH]c(SCc2cccc(C(F)(F)F)c2)ncc1O` [Example 10, 5-Hydroxy-2-{[3-(trifluoromethyl)benzyl]sulfanyl}pyrimidin-4(3H)-one], 150 nM.
In the case of `O=c1[nH]c(SCc2cc(F)cc(Cl)c2)ncc1O` [Example 11, 2-[(3-Chloro-5-fluorobenzyl)sulfanyl]-5-hydroxypyrimidin-4(3H)-one], the 50% inhibitory concentration (IC50) is 150 nM.
Consider `Cc1nc(-c2cccc(CSc3ncc(O)c(=O)[nH]3)c2)no1` [Example 12, 5-Hydroxy-2-{[3-(5-methyl-1,2,4-oxadiazol-3-yl)benzyl]-sulfanyl}-pyrimidin-4(3H)-one], for which the IC50 amounted to 500 nM.
Turning to `CC(Sc1ncc(O)c(=O)[nH]1)c1ccccc1` (stereo not shown) [Example 14, 5-Hydroxy-2-[(1-phenylethyl)sulfanyl]pyrimidin-4(3H)-one], the half-inhibitory concentration (IC50) amounted to 1200 nM.
Consider `O=c1[nH]c(SCc2cccc3c2OCCO3)ncc1O` [Example 16, 2-[(2,3-Dihydro-1,4-benzodioxin-5-ylmethyl)sulfanyl]-5-hydroxypyrimidin-4(3H)-one], for which the IC50 amounted to 540 nM.
In the case of `O=c1[nH]c(SCc2cccc(OC(F)F)c2)ncc1O` [Example 18, 2-(3-(Difluoromethoxy)benzylthio)-5-hydroxypyrimidin-4(3H)-one] it was 190 nM.
In the case of `O=c1[nH]c(SCc2cccnc2)ncc1O` [Example 20, 5-Hydroxy-2-(pyridin-3-ylmethylthio)pyrimidin-4(3H)-one] it was 470 nM; in that of `Cc1cc(CSc2ncc(O)c(=O)[nH]2)n(C)n1` [Example 21, 2-((1,3-Dimethyl-1H-pyrazol-5-yl)methylthio)-5-hydroxypyrimidin-4(3H)-one], 1600 nM; in that of `O=c1[nH]c(SCc2ccc3nccn3c2)ncc1O` [Example 26, 5-Hydroxy-2-[(imidazo[1,2-a]pyridin-6-ylmethyl)sulfanyl]-pyrimidin-4(3H)-one], 740 nM.
Regarding `O=c1[nH]c(CSc2ccccc2)ncc1O` [Example 30, 5-Hydroxy-2-[(phenylsulfanyl)methyl]pyrimidin-4(3H)-one], the IC50 was found to be 2800 nM.
As for `O=c1[nH]c(COc2ccccc2)ncc1O` [Example 31, 5-Hydroxy-2-(phenoxymethyl)pyrimidin-4(3H)-one], the concentration for half-maximal inhibition (IC50) worked out at 3200 nM.
With `O=c1[nH]c(CCc2ccccc2)ncc1O` [Example 33, 5-Hydroxy-2-(2-phenylethyl)pyrimidin-4(3H)-one], the IC50 turned out to be 1200 nM.
In the case of `O=c1[nH]c(SCc2ccccc2)nc(C(F)(F)F)c1O` [Example 34, 2-(Benzylsulfanyl)-5-hydroxy-6-(trifluoromethyl)pyrimidin-4(3H)-one] it was 2700 nM.

One may read the IC50 as the concentration that inhibits the measured activity by half.

The values are drawn from US10085986B2, “Pyrimidinone compounds and their use” (Takeda Pharmaceutical Company Limited, priority 2011, dated 2018).
